Broadly, the IC50 is the point on the concentration scale where inhibition reaches its midpoint. Low values mean higher potency, high ones lower potency.

For one test, the system named is Mtb H37Rv. Nature of the test: Minimum inhibitory concentration. The conditions noted are these: for fold drop/change in potency (MIC) relative to parent compound 1: versus lead 1.
The test system of another test is Mtb. Conditions: in Mtb; cited from earlier work.
The subject of a further test is IκB kinase β. Conditions: cited from earlier work.
The subject of test [1] is murine macrophage cell line J774.1. The experiment in a line: Cytotoxicity by Alamar Blue, 3 days. Type of test: cell-based. Conditions: J774.1 cells, two-fold dilutions starting at 60 µM.

On to `O=C(Nc1cc(C(F)(F)F)cc(C(F)(F)F)c1)c1cc(F)ccc1O` [Compound 7, N-(3,5-Bis(trifluoromethyl)phenyl)-5-fluoro-2-hydroxy-benzamide], for which, in the test on Mtb H37Rv, the “fold drop/change in potency (MIC) relative to parent compound 1” value was found to be 2 fold.

Regarding `O=C(Nc1cc(C(F)(F)F)cc(C(F)(F)F)c1)c1cc(Br)ccc1O` [Compound 8, N-(3,5-Bis(trifluoromethyl)phenyl)-5-bromo-2-hydroxybenzamide], in the test on Mtb H37Rv, the “fold drop/change in potency (MIC) relative to parent compound 1” value came to 2 fold.

Take `O=C(Nc1ccc([N+](=O)[O-])cc1Cl)c1cc(Cl)ccc1O` [niclosamide]: the “effect on membrane potential and pH homeostasis” value in the test with Mtb is “disruption of membrane potential and pH homeostasis”.

In the case of `O=C(Nc1cc(C(F)(F)F)cc(C(F)(F)F)c1)c1cc(Cl)ccc1O` [Compound 1, N-(3,5-bis(trifluoromethyl)phenyl)-5-chloro-2-hydroxybenzamide], in the test on IκB kinase β, the “inhibition of IκB kinase β” value is given as “potent inhibitor”.

In the case of `O=C(Nc1ccccc1)c1cc(Cl)ccc1O` [Compound 26, 5-Chloro-2-hydroxy-N-phenylbenzamide], the “fold drop/change in potency (MIC) relative to parent compound 1” value in the test on Mtb H37Rv is recorded as 4–8 fold.

As to `O=C(Nc1cccc(F)c1)c1cc(Cl)ccc1O` [Compound 34, 5-Chloro-N-(3-fluorophenyl)-2-hydroxybenzamide], the “fold drop/change in potency (MIC) relative to parent compound 1” value in the test on Mtb H37Rv was 2–4 fold.

`O=C(Nc1cc(C(F)(F)F)cc(C(F)(F)F)c1)c1cc(I)ccc1O` [Compound 9, N-(3,5-Bis(trifluoromethyl)phenyl)-2-hydroxy-5-iodobenzamide]: the “fold drop/change in potency (MIC) relative to parent compound 1” value with Mtb H37Rv came to 2 fold.

With `O=C(Nc1cccc(Br)c1)c1cc(Cl)ccc1O` [Compound 35, N-(3-Bromophenyl)-5-chloro-2-hydroxybenzamide], in the test on Mtb H37Rv, the “fold drop/change in potency (MIC) relative to parent compound 1” value is 2–4 fold.

“N-(3-Bromo-5-(trifluoromethyl)phenyl)-5-chloro-2-hydroxy-benzamide [Compound 74]”: the half-inhibitory concentration (IC50) in test [1] was determined as 5.8 µM.

On to `O=C(Nc1ccccc1C(F)(F)F)c1cc(Cl)ccc1O` [Compound 28, 5-Chloro-2-hydroxy-N-(2-trifluoromethyl-phenyl)-benzamide], for which the “fold loss in activity on moving single CF3 from meta to ortho” value in the test with Mtb H37Rv (versus meta-CF3 compound 27) is recorded as 4–8 fold.

Consider `O=C(Nc1cc(C(F)(F)F)cc(C(F)(F)F)c1)c1ccccc1O` [Compound 2, N-(3,5-Bis(trifluoromethyl)phenyl)-2-hydroxybenzamide], for which the “fold drop/change in potency (MIC) relative to parent compound 1” value in the test with Mtb H37Rv was 2–4 fold.

The record behind these values is article PMC3525752 (Bioorganic & medicinal chemistry, 2012).
